According to patent publication US10040791B2, “Isoxazole derivative as mutant isocitrate dehydrogenase 1 inhibitor” (Daiichi Sankyo Company, Limited, priority 2014, dated 2018):
Read-outs that look alike come from different tables or passages of the source.

Columns and labels:
[1] = tested on: HT1080 xenografted mice (IDH1R132C); assay: 2-HG production inhibitory activity using HT1080 xenografted mice; type: in vivo, mouse; details: 2-HG production, HT1080 xenografted mice; for response vs control in vivo at 75 mg/kg: Mus musculus, HT-1080, po, 6 h, read-out: Test Example 5 Ratio (%)
Experimental: HT1080 xenografted mice having successfully engrafted tumors were given by oral gavage each compound at 75 mg/kg a total of three times twice a day. The compound was suspended in a vehicle solution at 7.5 mg/mL using a homogenizer. Then, the suspension was stored at −20° C., thawed immediately before the administration, and given to mice. A negative control group for the test was given a vehicle by oral gavage. The body weights of the mice were measured using an automatic balance for small animals. The dosing solution was administered at a dose of 10 mL/kg body weight.
6 hours after the final administration, each mouse was euthanized with carbon dioxide. A portion of a tumor was collected, and its weight was measured using an electronic balance. Then, the tumor was frozen on dry ice. To the frozen tumor, methanol was added in an amount of 14 times the tumor weight. The resulting tumor was homogenized with Beads shocker (Yasui Kikai Corp.) and then incubated for 15 minutes in a freezer at −20° C. After centrifugation at 15000 rpm at 4° C. for 15 minutes using a high-speed refrigerated microcentrifuge, 250 μL of methanol and 400 μL of ultrapure water were added to 150 μL of the obtained supernatant. The prepared samples were subjected to 2-HG measurement.

IDH1R132C = IDH1R132C (Homo sapiens (Human), UniProt O75874, R132C); assay: Inhibitory activity against IDH1R132C enzyme (NADPH detection, WST-8); type: biochemical; details: 10 nM, residual NADPH detected with WST-8, read-out: Test Example 1 IDH1 R132C IC50
Sequence of IDH1R132C (O75874 whole entry R132C): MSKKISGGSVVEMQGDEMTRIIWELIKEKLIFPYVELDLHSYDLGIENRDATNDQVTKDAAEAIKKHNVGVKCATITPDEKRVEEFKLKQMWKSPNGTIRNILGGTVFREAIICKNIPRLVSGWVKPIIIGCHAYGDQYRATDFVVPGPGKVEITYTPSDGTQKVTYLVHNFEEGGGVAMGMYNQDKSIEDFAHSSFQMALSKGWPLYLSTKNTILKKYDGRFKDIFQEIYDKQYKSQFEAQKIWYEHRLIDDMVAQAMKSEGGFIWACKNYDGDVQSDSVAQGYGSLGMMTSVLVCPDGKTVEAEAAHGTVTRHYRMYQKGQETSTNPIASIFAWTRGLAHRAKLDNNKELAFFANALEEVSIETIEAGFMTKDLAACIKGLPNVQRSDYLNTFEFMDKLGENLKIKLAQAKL

[2] = tested on: HT-1080 cells expressing IDH1R132C; assay: 2-HG production inhibitory activity using HT1080 cell; type: cell-based, human; details: 2-HG production, HT1080 cells, read-out: Test Example 3 IC50
Experimental: Then, 100 μL of growth medium B was added to each well, further 25 μL of a solution of each compound diluted to a predetermined concentration with growth medium B was added to each well, and the cells were incubated at 37° C. for 2 days under 5% CO2. […] Then, 150 μL of ultrapure water was further added to each well, and the mixture was stirred by pipetting and stored at −20° C.
The preserved solutions were thawed at room temperature.

| Compound | IC50 (IDH1R132C) [nM] | IC50 ([2]; Homo sapiens, HT-1080) [nM] | response vs control in vivo at 75 mg/kg [1] [%] | Test Example 5 Ratio (%) [1] [%] | IC50 [2] [nM] |
| --- | --- | --- | --- | --- | --- |
| C=CC(=O)N1C[C@@H](C)N(c2onc(-c3c(Cl)cccc3Cl)c2C(=O)n2ccc3c(/C=C/C(=O)O)cccc32)C2(CC2)C1 [Example 159, (2E)-3-[1-({5-[(5R)7-Acryloyl-5-methyl-4,7-diazaspiro[2.5]oct-4-yl]-3-(2,6-dichlorophenyl)-1,2-oxazol-4-yl}carbonyl)-1H-indol-4-yl]prop-2-enoic acid] | 84 | 138 | 30 |  |  |
| C=CC(=O)N1CC2(CC2)N(c2onc(-c3c(Cl)cccc3OC)c2C(=O)n2ccc3c(/C=C/C(=O)O)cccc32)C[C@H]1CC [Example 161, (2E)-3-[1-({5-{(6R)7-Acryloyl-6-ethyl-4,7-diazaspiro[2.5]oct-4-yl]-3-(2-chloro-6-methoxyphenyl)-1,2-oxazol-4-yl}carbonyl)-1H-indol-4-yl]prop-2-enoic acid] | 98 | 121 | 72 |  |  |
| CC(C)(C)c1onc(-c2c(Cl)cc(Cl)cc2Cl)c1C(=O)n1ccc2c(/C=C/C(=O)O)ccc(F)c21 [Example 48] | 193 |  |  | 72 | 115 |
| Cc1cn(C(=O)c2c(-c3c(Cl)cc(Cl)cc3Cl)noc2C2(C)CC2)c2cccc(/C=C/C(=O)O)c12 [Example 43, (2E)-3-(3-Methyl-1-{[5-(1-methylcyclopropyl)-3-(2,4,6-trichlorophenyl)-1,2-oxazol-4-yl]carbonyl}-1H-indol-4-yl)prop-2-enoic acid] | 139 | 63 | 54 |  |  |
| C=CC(=O)N1CC2(CC2)N(c2onc(-c3c(F)cccc3Cl)c2C(=O)n2ccc3c(/C=C/C(=O)O)cccc32)C[C@H]1C [Example 156, (2E)-3-[1-({5-[(6R)7-Acryloyl-6-methyl-4,7-diazaspiro[2.5]oct-4-yl]-3-(2-chloro-6-fluorophenyl)-1,2-oxazol-4-yl}carbonyl)-1H-indol-4-yl]prop-2-enoic acid] | 167 | 167 | 60 |  |  |
| CC(C)(F)c1onc(-c2c(Cl)cc(Cl)cc2Cl)c1C(=O)n1ccc2c3c(ccc21)CCC(C(=O)O)C3 (stereo not drawn) [Example 18, 3-{[5-(2-Fluoropropan-2-yl)-3-(2,4,6-trichlorophenyl)-1,2-oxazol-4-yl]carbonyl}-6,7,8,9-tetrahydro-3H-Benzo[e]indole-8-carboxylic acid] | 162 | 136 | 56 |  |  |
| CCc1cn(C(=O)c2c(-c3c(Cl)cc(Cl)cc3Cl)noc2C(C)(C)F)c2cccc(/C=C/C(=O)O)c12 [Example 65, (2E)-3-(3-Ethyl-1-{[5-(2-fluoropropan-2-yl)-3-(2,4,6-trichlorophenyl)-1,2-oxazol-4-yl]carbonyl}-1H-indol-4-yl)prop-2-enoic acid] | 198 | 93 | 65 |  |  |
| C=CC(=O)N1CCC(c2onc(-c3c(Cl)cc(Cl)cc3Cl)c2C(=O)n2cc3c4c(cccc42)C(CC(=O)O)CC3)CC1 (stereo not drawn) [Example 125] | 454 | 78 | 72 |  |  |
| Cc1cn(C(=O)c2c(-c3c(Cl)cc(C4CC4)cc3Cl)noc2C(C)(C)F)c2cccc(/C=C/C(=O)O)c12 [Example 70, (2E)-3-(1-{[3-(2,6-Dichloro-4-cyclopropylphenyl)-5-(2-fluoropropan-2-yl)-1,2-oxazol-4-yl]carbonyl}-3-methyl-1H-indol-4-yl)prop-2-enoic acid] | 153 | 71 | 41 |  |  |
| Cc1cn(C(=O)c2c(-c3c(Cl)cc(Cl)cc3Cl)noc2C(C)C)c2cccc(/C=C/C(=O)O)c12 [Example 29, (2E)-3-(1-{[5-(Propan-2-yl)-3-(2,4,6-trichlorophenyl)-1,2-oxazol-4-yl]carbonyl}-3-methyl-1H-indol-4-yl)prop-2-enoic acid] | 102 | 94 | 39 |  |  |
| C=CC(=O)N1CCC(C)(c2onc(-c3c(Cl)cc(Cl)cc3Cl)c2C(=O)n2cc(C)c3c(/C=C/C(=O)O)cccc32)CC1 [Example 113] | 104 | 2 | 13 |  |  |
| CNC1(c2onc(-c3c(Cl)cc(Cl)cc3Cl)c2C(=O)n2cc(C)c3c(/C=C/C(=O)O)cccc32)CCC1 [Example 83, (2E)-3-(3-Methyl-1-{[5-[1-(methylamino)cyclobutyl]-3-(2,4,6-trichlorophenyl)-1,2-oxazol-4-yl]carbonyl}-1H-indol-4-yl)prop-2-enoic acid] | 87 | 33 | 23 |  |  |

Second part, led by results:

| IC50 (IDH1R132C) [nM] | IC50 ([2]; Homo sapiens, HT-1080) [nM] | Compound | response vs control in vivo at 75 mg/kg [1] [%] | Test Example 5 Ratio (%) [1] [%] | IC50 [2] [nM] |
| --- | --- | --- | --- | --- | --- |
| 217 | 178 | COCC(C)(C)c1onc(-c2c(Cl)cc(Cl)cc2Cl)c1C(=O)n1ccc2c(/C=C/C(=O)O)cccc21 [Example 42, (2E)-3-(1-{[5-(1-Methoxy-2-methylpropan-2-yl)-3-(2,4,6-trichlorophenyl)-1,2-oxazol-4-yl]carbonyl}-1H-indol-4-yl)prop-2-enoic acid] | 84 |  |  |
| 214 | 820 | C=CC(=O)N1CCN(c2onc(-c3c(Cl)cccc3Cl)c2C(=O)n2ccc3c(/C=C/C(=O)O)cccc32)[C@@H](C)C1 [Example 145, (2E)-3-[1-({5-[(2S)-4-Acryloyl-2-methylpiperazin-1-yl]-3-(2,6-dichlorophenyl)-1,2-oxazol-4-yl}carbonyl)-1H-indol-4-yl]prop-2-enoic acid] | 56 |  |  |
| 316 | 48 | C=CC(=O)N1CCC(c2onc(-c3c(C)cc(Cl)cc3C)c2C(=O)n2ccc3c(/C=C/C(=O)O)cccc32)CC1 [Example 110] | 52 |  |  |
| 114 | 506 | C=CS(=O)(=O)N1CCC(c2onc(-c3c(Cl)cc(Cl)cc3Cl)c2C(=O)n2ccc3c(/C=C/C(=O)O)cccc32)CC1 [Example 103] | 90 |  |  |
| 189 | 28 | C#CC(=O)N1CCC(c2onc(-c3c(Cl)cc(Cl)cc3Cl)c2C(=O)n2ccc3c(/C=C/C(=O)O)cccc32)CC1 [Example 100] | 75 |  |  |
| 67 | 89 | C=CC(=O)N1CC(c2onc(-c3c(Cl)cc(Cl)cc3Cl)c2C(=O)n2ccc3c(/C=C/C(=O)O)cccc32)C1 [Example 95] | 44 |  |  |
| 109 | 170 | CC(C)(F)c1onc(-c2c(Cl)cc(Cl)cc2Cl)c1C(=O)n1ccc2c(/C=C/C(=O)O)cccc21 [Example 36, (2E)-3-(1-{[5-(2-Fluoropropan-2-yl)-3-(2,4,6-trichlorophenyl)-1,2-oxazol-4-yl]carbonyl}-1H-indol-4-yl)prop-2-enoic acid] | 43 |  |  |
| 471 | 42 | C=CC(=O)N1CCC(c2onc(-c3c(Cl)cc(Cl)cc3Cl)c2C(=O)n2ccc3c(/C=C(\C)C(=O)O)cccc32)CC1 [Example 116] | 57 |  |  |
| 225 | 114 | C=CC(=O)N1CCN(c2onc(-c3c(Cl)cc(Cl)cc3Cl)c2C(=O)n2ccc3c(/C=C/C(=O)O)cccc32)C[C@H]1C [Example 148, (2E)-3-[1-({5-[(3R)-4-Acryloyl-3-methylpiperazin-1-yl]3-(2,4,6-trichlorophenyl)-1,2-oxazol-4-yl}carbonyl)-1H-indol-4-yl]prop-2-enoic acid] | 50 |  |  |
